Experimental data reported in patent US6432883B1, “Methods of treating plants with glycolic acid” (Emerald BioAgriculture Corporation, priority 2000, dated 2002).
Marks after values point to notes of the source that are not given here.

Key:
Format in all cases: in vivo
[1] = test system: Sclerotinia minor; assay: Excised lettuce leaves, post-harvest pathogen stress: disease index; conditions: for Disease Index [(severity)(% incidence)/100]: 3 days post-inoculation
Description: Waldmann's MTO dark green Grand Rapids leaf lettuce seed, lot# 15529, was purchased from Johnny's Selected Seeds, Albion, Me., and broadcast seeded into 10×20×2′ flats. Circular steel-blue blotter papers (Anchor Paper Co, St. Paul, Minn.) were fitted into disposable petri dishes. Treatments consisted of non-inoculated and inoculated groups of non-treated (NTC), water and 0.01% surfactant-blank (SB) controls and 10, 25, 75,150, 500 and 1000 ppm of glycolic acid.
(§1) Blotters were saturated with 4.5 ml sterile tap water. Individual leaves (20) were excised and placed into a treatment solution for 5 seconds or left non-treated. Excess fluid was removed from the leaf surface. These leaves were then placed singly, 1 leaf per dish and adaxial side up, on the moist blotters. Dish lids were replaced and dishes stacked, bagged and returned to the petri dish box for 24 hours dark storage at room temperature (68-72° F.).
Inoculum (Sclerotinia minor hyphal fragments and sclerotia) was grown on potato dextrose agar (PDA) plates until the sclerotia were black and hard. These were blended into a paste with non-inoculated PDA and sterile tap water. A small spot of inoculum paste containing hyphal fragments and 2-3 sclerotia was dotted onto the center of 16 of the 20 leaf pieces per treatment stack 24 hours after test substance application.
Due to the nature of Sclerotinia as a pathogen, disease is generally an all-or-nothing phenomenon. Therefore, it is necessary to assess both disease incidence and disease severity to give an accurate representation of the disease progression. Disease severity assessment was made at 3 days±2 hours post-inoculation by measuring the radius of colonized tissue in mm. Disease incidence was assessed as the presence or absence of infection (number of diseased leaves/ number of leaves tested) 100=% incidence. Multiplying the average severity by the % incidence and dividing by 100 then combined both evaluations into one assessment number and created a disease index value. The results in Table 5 below show this value for each treatment.

[2] = test system: Bottytis cinerea; assay: Excised lettuce leaves, post-harvest pathogen stress: radius of colonized tissue; conditions: for Average Disease Progression: radius of colonized tissue 3 days post-inoculation
Description: Waldmann's MTO dark green Grand Rapids leaf lettuce seed, lot# 15529, was purchased from Johnny's Selected Seeds, Albion, Me., and grown 8 plants per 1 gallon pot. Circular steel-blue blotter papers (Anchor Paper Co, St. Paul, Minn.) were steam autoclaved and fitted into disposable petri dishes. […]
as §1, with “for 5-10” for “for 5”, “24 hour” for “24 hours”, “temperature (65-68°” for “temperature (68-72°”
Inoculum (Bottytis cinerea) was grown on potato dextrose agar (PDA) plates until dense conidia production was present. These were blended into a paste with non-inoculated PDA and sterile tap water. Inoculum concentration was determined by dilution plating to be 1960 cfu/ml.
A small spot of inoculum paste was dotted onto the center of 16 of the 20 leaf pieces per treatment stack 24 hours after test substance application.
Disease progression assessment was made at 3 days±2 hours post-inoculation by measuring the radius of colonized tissue in mm.

[3] = test system: Sclerotinia minor; assay: Cabbage pathogen stress: disease severity rating, fresh and dry weights; conditions: for Dry Weight / Fresh Weight: cabbage under pathogen stress; for Disease Severity Rating: cabbage, 1-9 rating scale
Description: Market Prize, F1 cabbage seed, lot 88955, was purchased from Harris Seeds, Inc., Rochester, N.Y. These were grown 8 plants per 1 gallon pot, 1 pot per experimental unit and 3 experimental units per each of 3 replications. The plants were spray-treated first at 4 true leaves and again 14 days later with 8 ml per pot. The pathogen stress (Sclerotinia minor hyphal fragments and sclerotia, cultured on potato dextrose agar) was applied to the plant stems at the soil/stem interface at 4 days following the second treatment application.
Treatments consisted of non-inoculated and inoculated groups of non-treated (NTC), water and 0.05% surfactant-blank (SB) controls and 1, 5, 10, 25, 37.5 and 75 ppm of glycolic acid.
Disease assessment was made just prior to harvest by means of a 1-9 based rating scale. Each plant was harvested at the soil line for yield fresh and dry weights. The results in Table 2 below show the data for each treatment and the rating scale definitions.

**Q.** With `O=C(O)CO` [glycolic acid] as the molecule, how does the “Disease Index [(severity)(% incidence)/100]” value ([1]; 10 ppm leaf dip) read?
**A.** 1.2

**Q.** What about the “disease severity versus control lettuce” value ([1]; 25 ppm and 75 ppm, lettuce leaves, α=0.05) of the same molecule?
**A.** statistically significant (α=0.05) decrease

**Q.** And the “Disease Index [(severity)(% incidence)/100]” value ([1]; 25 ppm leaf dip)?
**A.** 0.1*

**Q.** What about the “Disease Index [(severity)(% incidence)/100]” value ([1]; 75 ppm leaf dip) of the same molecule?
**A.** 0.5*

**Q.** What about the “Disease Index [(severity)(% incidence)/100]” value ([1]; 150 ppm leaf dip) of the same molecule?
**A.** 1.3

**Q.** What about the “Disease Index [(severity)(% incidence)/100]” value ([1]; 500 ppm leaf dip) of the same molecule?
**A.** 1.1

**Q.** And the “Disease Index [(severity)(% incidence)/100]” value ([1]; 1000 ppm leaf dip)?
**A.** 2.0

**Q.** And the “Average Disease Progression” value ([2]; 10 ppm leaf dip)?
**A.** 4.0* mm

**Q.** And the “disease severity versus control lettuce” value ([2]; 10 ppm, lettuce leaves, α=0.05)?
**A.** statistically significant (α=0.05) decrease

**Q.** What about the “Average Disease Progression” value ([2]; 25 ppm leaf dip) of the same molecule?
**A.** 9.8 mm

**Q.** What about the “Average Disease Progression” value ([2]; 75 ppm leaf dip) of the same molecule?
**A.** 9.4 mm

**Q.** What about the “Average Disease Progression” value ([2]; 150 ppm leaf dip) of the same molecule?
**A.** 13.6 mm

**Q.** What about the “Average Disease Progression” value ([2]; 500 ppm leaf dip) of the same molecule?
**A.** 12.1 mm

**Q.** What about the “Average Disease Progression” value ([2]; 1000 ppm leaf dip) of the same molecule?
**A.** 11.6 mm

**Q.** What about the “Dry Weight” value ([3]; 1 ppm spray) of the same molecule?
**A.** 38.3 g

**Q.** What about the “Fresh Weight” value ([3]; 1 ppm spray) of the same molecule?
**A.** 359 g

**Q.** What about the “Disease Severity Rating” value ([3]; 1 ppm spray) of the same molecule?
**A.** 3.6

**Q.** What about the “Dry Weight” value ([3]; 5 ppm spray) of the same molecule?
**A.** 39.8 g

**Q.** What about the “Fresh Weight” value ([3]; 5 ppm spray) of the same molecule?
**A.** 346 g

**Q.** And the “Disease Severity Rating” value ([3]; 5 ppm spray)?
**A.** 3.7

**Q.** And the “Dry Weight” value ([3]; 10 ppm spray)?
**A.** 40.9 g

**Q.** What about the “Fresh Weight” value ([3]; 10 ppm spray) of the same molecule?
**A.** 342 g

**Q.** What about the “Disease Severity Rating” value ([3]; 10 ppm spray) of the same molecule?
**A.** 2.8

**Q.** What about the “Dry Weight” value ([3]; 25 ppm spray) of the same molecule?
**A.** 39.1 g

**Q.** What about the “Fresh Weight” value ([3]; 25 ppm spray) of the same molecule?
**A.** 364 g

**Q.** And the “Disease Severity Rating” value ([3]; 25 ppm spray)?
**A.** 2.2

**Q.** And the “disease severity versus control” value ([3]; 37.5 and 75 ppm, α=0.05)?
**A.** statistically significant (α=0.05) decrease

**Q.** And the “fresh weight versus control” value ([3]; 37.5 ppm)?
**A.** statistically significant increase

**Q.** And the “Dry Weight” value ([3]; 37.5 ppm spray)?
**A.** 39.0 g

**Q.** What about the “Fresh Weight” value ([3]; 37.5 ppm spray) of the same molecule?
**A.** 381* g

**Q.** And the “Disease Severity Rating” value ([3]; 37.5 ppm spray)?
**A.** 1.7*

**Q.** What about the “dry weight versus control” value ([3]; 75 ppm) of the same molecule?
**A.** statistically significant increase

**Q.** What about the “Dry Weight” value ([3]; 75 ppm spray) of the same molecule?
**A.** 41.5* g

**Q.** What about the “Fresh Weight” value ([3]; 75 ppm spray) of the same molecule?
**A.** 354 g

**Q.** And the “Disease Severity Rating” value ([3]; 75 ppm spray)?
**A.** 2.0*
